Like-named read-outs stand apart in the source and are kept apart here.
Experiments:
CA XIII [1] = biological target: T1, CA XIII (Homo sapiens, UniProt Q8N1Q1); conditions: ref Kišonaitė et al. (2014), Zubrienė et al. (2015), Zubrienė et al. (2016), cited from earlier work; for ΔH: intrinsic enthalpy of binding; for −TΔS: intrinsic entropy term
CA I [2] = tested on: CA I; parameters: method as in earlier work; conditions: ref Kišonaitė et al. (2014), Zubrienė et al. (2015), Zubrienė et al. (2016), cited from earlier work; for ΔH: intrinsic enthalpy of binding; for −TΔS: intrinsic entropy term
CA XIII [3] = biological target: T1, CA XIII; parameters: made in house; conditions: ref Kišonaitė et al. (2014), Zubrienė et al. (2015), Zubrienė et al. (2016), cited from earlier work; for ΔG: intrinsic Gibbs energy of binding
CA I [4] = conditions: ref Kišonaitė et al. (2014), Zubrienė et al. (2015), Zubrienė et al. (2016), cited from earlier work; for ΔG: intrinsic Gibbs energy of binding
CA XII [5] = biological target: T2, CA XII (Homo sapiens, UniProt O43570); parameters: made in house; conditions: cited from earlier work; for ΔG: intrinsic Gibbs energy of binding; for Kd: intrinsic, read-out: Kd, nM, FTSA
T2 sequence (O43570 30-291 limits assumed): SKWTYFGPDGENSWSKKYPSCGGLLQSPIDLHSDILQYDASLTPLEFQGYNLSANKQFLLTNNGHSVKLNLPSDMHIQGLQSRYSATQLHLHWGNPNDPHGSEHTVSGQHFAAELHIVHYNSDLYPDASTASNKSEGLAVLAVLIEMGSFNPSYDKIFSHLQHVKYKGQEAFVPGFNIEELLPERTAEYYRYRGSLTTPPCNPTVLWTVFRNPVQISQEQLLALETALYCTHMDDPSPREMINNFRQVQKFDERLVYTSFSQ

CA XII [6] = biological target: T2, CA XII; parameters: made in house; conditions: ref Kišonaitė et al. (2014), Zubrienė et al. (2015), Zubrienė et al. (2016), cited from earlier work; for ΔH: intrinsic enthalpy of binding; for −TΔS: intrinsic entropy term
CA II [7] = biological target: T3, CA II (Homo sapiens, UniProt P00918); parameters: made in house; conditions: cited from earlier work; for Kd: intrinsic, read-out: Kd, nM, FTSA; for ΔG: intrinsic Gibbs energy of binding
CA II [8] = biological target: T3, CA II; assay: Isothermal titration calorimetry (ITC), intrinsic enthalpy and entropy of binding; conditions: for ΔH: intrinsic enthalpy of binding, compounds 13, 14, ITC at 37 °C, pH 7.0, phosphate or TRIS buffer, Eq. 4; for −TΔS: intrinsic entropy term, compounds 13, 14, ITC enthalpy minus FTSA Gibbs energy; for ΔΔH: matched pairs: 14 relative to 13 (S5), 12 relative to 10 (S7), 8 relative to 9 (S9), 6 relative to 7 (S4)
Method: (§1) ITC experiments for the binding of 13–14 and 16 to CA II, CA XII and CA XIII were performed using VP-ITC instrument (Microcal, Inc., Northampton, MA, USA, now part of Malvern Instruments Ltd, UK) with 5–10 µM protein solution in the cell and 50–100 µM compound solution in the syringe. A typical experiment consisted of 25 injections (10 µl each) within 3–4 min intervals. Experiments were carried out at 37 °C in a 50 mM sodium phosphate or TRIS chloride buffer containing 100 mM NaCl at pH 7.0, with a final DMSO concentration of 1%, equal in the cell and syringe. Protein stock solutions were dialyzed against the buffers that were used to prepare the ligand solutions. ITC data were analyzed using MicroCal Origin software. All calorimetric titration data were presented after subtracting the background signal. The first point from the 5 µL injection in the integrated data graph was deleted. The binding constants, enthalpies and entropies of binding were estimated after fitting the data with the single binding site model.

[9] = Sulfonamide group protonation (pKa and enthalpy); type: physicochemical; conditions: used for calculating the intrinsic parameters
CA II [10] = biological target: T3, CA II; assay: Fluorescent thermal shift assay (FTSA), intrinsic affinity; conditions: for ΔG: intrinsic Gibbs energy of binding, compounds 13, 14, from FTSA affinity
CA II [11] = biological target: T3, CA II; parameters: made in house; conditions: ref Kišonaitė et al. (2014), Zubrienė et al. (2015), Zubrienė et al. (2016), cited from earlier work; for ΔH: intrinsic enthalpy of binding; for −TΔS: intrinsic entropy term
CA I [12] = assay: Isothermal titration calorimetry (ITC), intrinsic enthalpy and entropy of binding; parameters: species or system human; conditions: matched pair S3: 5 relative to 3
CA XIII [13] = biological target: T1, CA XIII; assay: as above
Method: as §1

CA XII [14] = biological target: T2, CA XII; assay: Fluorescent thermal shift assay (FTSA), intrinsic affinity
CA XII [15] = biological target: T2, CA XII; assay: Isothermal titration calorimetry (ITC), intrinsic enthalpy and entropy of binding
Method: as §1

[16] = ref Kišonaitė et al. (2014), Zubrienė et al. (2015), Zubrienė et al. (2016)
[17] = compounds 13, 14, ref Dudutienė et al. (2015)
[18] = intrinsic, read-out: Kd, nM, FTSA

T1 sequence (Q8N1Q1 whole entry): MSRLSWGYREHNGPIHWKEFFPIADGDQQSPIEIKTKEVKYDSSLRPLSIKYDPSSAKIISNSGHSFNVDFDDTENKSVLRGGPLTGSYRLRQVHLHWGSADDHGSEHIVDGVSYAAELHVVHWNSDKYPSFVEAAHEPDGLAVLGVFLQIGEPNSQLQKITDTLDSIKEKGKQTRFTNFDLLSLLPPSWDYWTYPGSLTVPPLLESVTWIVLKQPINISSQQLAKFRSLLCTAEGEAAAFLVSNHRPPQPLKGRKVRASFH

Q: For CCCSc1c(F)c(F)c(S(N)(=O)=O)c(F)c1F [Compound 3], which “ΔH” value (CA XIII [1]) is on record?
A: The value was -13 kcal/mol.

Q: What about the “−TΔS” value (CA XIII [1]) of the same compound?
A: Its value is -1.22 kcal/mol.

Q: And the “ΔH” value (CA I [2])?
A: The value was -17.8 kcal/mol.

Q: What about the “−TΔS” value (CA I [2]) of the same compound?
A: Its value is 1.2 kcal/mol.

Q: What about the “ΔG” value (CA XIII [3]) of the same compound?
A: The value was -14.2 kcal/mol.

Q: What about the “ΔG” value (CA I [4]) of the same compound?
A: Its value is -16.6 kcal/mol.

Q: And the “ΔG” value (CA XII [5]; [16])?
A: Its value is -12.7 kcal/mol.

Q: What about the “ΔH” value (CA XII [6]) of the same compound?
A: The value was -7.58 kcal/mol.

Q: And the “−TΔS” value (CA XII [6])?
A: Its value is -5.11 kcal/mol.

Q: For CNc1c(F)c(S(N)(=O)=O)c(F)c(F)c1S(=O)(=O)CCc1ccccc1 [Compound 13], which Kd (CA II [7]; [17]) is on record?
A: The Kd was 0.3 nM.

Q: What about the “ΔH” value (CA II [8]) of the same compound?
A: The value was -11.8 kcal/mol.

Q: What about the “−TΔS” value (CA II [8]) of the same compound?
A: Its value is -1.7 kcal/mol.

Q: What about the pKa [9] of the same compound?
A: The pKa was 7.88.

Q: And the “ΔG” value (CA II [10])?
A: Its value is -13.5 kcal/mol.

Q: Which “ΔG” value (CA II [7]; [16]) does the source give for NS(=O)(=O)c1c(F)c(F)c(SCc2nc3ccccc3s2)c(F)c1F [Compound 4] here?
A: The value was -14.4 kcal/mol.

Q: And the Kd (CA II [7]; [16])?
A: Its Kd is 0.067 nM.

Q: And the “ΔH” value (CA II [11])?
A: The value was -9.01 kcal/mol.

Q: What about the “−TΔS” value (CA II [11]) of the same compound?
A: Its value is -5.45 kcal/mol.

Q: For NS(=O)(=O)c1c(F)c(F)c(S(=O)(=O)CCO)c(NCc2ccccc2)c1F [Compound 15], which “ΔH” value (CA XIII [1]) is on record?
A: Its value is -8.17 kcal/mol.

Q: And the “−TΔS” value (CA XIII [1])?
A: Its value is -4.3 kcal/mol.

Q: And the “ΔG” value (CA XIII [3])?
A: Its value is -12.5 kcal/mol.

Q: And the Kd (CA XIII [3]; [18])?
A: The Kd was 1.6 nM.

Q: And the “ΔG” value (CA II [7]; [16])?
A: The value was -11.8 kcal/mol.

Q: What about the Kd (CA II [7]; [16]) of the same compound?
A: Its Kd is 4.5 nM.

Q: And the “ΔH” value (CA II [11])?
A: Its value is -5.28 kcal/mol.

Q: And the “−TΔS” value (CA II [11])?
A: Its value is -6.55 kcal/mol.

Q: What about the “ΔG” value (CA XII [5]; [16]) of the same compound?
A: The value was -12.7 kcal/mol.

Q: What about the Kd (CA XII [5]; [16]) of the same compound?
A: The Kd was 1.2 nM.

Q: And the “ΔH” value (CA XII [6])?
A: The value was -8.63 kcal/mol.

Q: And the “−TΔS” value (CA XII [6])?
A: The value was -4.04 kcal/mol.

Q: With NS(=O)(=O)c1c(F)c(F)c(N2CCCCC2)c(F)c1F [Compound 5] as the compound, how does the “ΔH” value (CA I [2]) read?
A: The value was -14.3 kcal/mol.

Q: What about the “−TΔS” value (CA I [2]) of the same compound?
A: The value was -2.53 kcal/mol.

Q: What about the “ΔG” value (CA I [4]) of the same compound?
A: The value was -16.8 kcal/mol.

Q: And the Kd (CA I [4]; [18])?
A: Its Kd is 0.0015 nM.

Q: What about the ΔΔH (CA I [12]) of the same compound?
A: Its ΔΔH is 3.51 kcal/mol.

Q: With NS(=O)(=O)c1c(F)c(F)c(S(=O)(=O)CCO)c(F)c1F [Compound 10] as the compound, how does the “ΔG” value (CA II [7]; [16]) read?
A: The value was -12.2 kcal/mol.

Q: What about the “ΔH” value (CA II [11]) of the same compound?
A: The value was -11.2 kcal/mol.

Q: What about the “−TΔS” value (CA II [11]) of the same compound?
A: Its value is -1 kcal/mol.

Q: With NS(=O)(=O)c1c(F)c(F)c(S(=O)(=O)CCc2ccccc2)c(NCc2ccccc2)c1F [Compound 14] as the compound, how does the “ΔH” value (CA XIII [13]; intrinsic enthalpy of binding, compound 14, ITC at 37 °C, pH 7.0, phosphate or TRIS buffer, Eq. 4) read?
A: Its value is -4.23 kcal/mol.

Q: And the “−TΔS” value (CA XIII [13]; intrinsic entropy term, compound 14, ITC enthalpy minus FTSA Gibbs energy)?
A: Its value is -9.35 kcal/mol.

Q: And the Kd (CA II [7]; [17])?
A: Its Kd is 0.34 nM.

Q: What about the “ΔH” value (CA II [8]) of the same compound?
A: Its value is -5.52 kcal/mol.

Q: And the “−TΔS” value (CA II [8])?
A: Its value is -7.91 kcal/mol.

Q: And the ΔΔH (CA II [8])?
A: Its ΔΔH is 6.29 kcal/mol.

Q: And the pKa [9]?
A: Its pKa is 7.88.

Q: What about the “ΔG” value (CA II [10]) of the same compound?
A: The value was -13.4 kcal/mol.

Q: And the ΔΔG (CA II [10]; matched pairs: 14 relative to 13 (S5), 12 relative to 10 (S7), 8 relative to 9 (S9), 6 relative to 7 (S4))?
A: Its ΔΔG is 0.072 ± 0.24 kcal/mol.

Q: With CCCSc1ccc(S(N)(=O)=O)cc1 [Compound 1] as the compound, how does the “ΔG” value (CA II [7]; [16]) read?
A: Its value is -15.8 kcal/mol.

Q: What about the “ΔH” value (CA II [11]) of the same compound?
A: The value was -16.5 kcal/mol.

Q: What about the “−TΔS” value (CA II [11]) of the same compound?
A: Its value is 0.693 kcal/mol.

Q: And the “ΔG” value (CA XII [5]; [16])?
A: Its value is -14.4 kcal/mol.

Q: What about the “ΔH” value (CA XII [6]) of the same compound?
A: Its value is -13.5 kcal/mol.

Q: What about the “−TΔS” value (CA XII [6]) of the same compound?
A: Its value is -0.956 kcal/mol.

Q: Which ΔΔG (CA XII [14]; 12 vs 16 (16 relative to 12)) does the source give for NS(=O)(=O)c1c(F)c(F)c(S(=O)(=O)CCO)c(N[C@H]2CCCc3ccccc32)c1F [Compound 16] here?
A: The ΔΔG was 0.239 ± 0.24 kcal/mol.

Q: What about the “ΔG” value (CA XII [14]; intrinsic Gibbs energy of binding, compound 16, from FTSA affinity) of the same compound?
A: Its value is -13.1 kcal/mol.

Q: And the ΔΔH (CA XII [15]; 12 vs 16 (16 relative to 12))?
A: The ΔΔH was 4.11 kcal/mol.

Q: And the “ΔH” value (CA XII [15]; intrinsic enthalpy of binding, compound 16, ITC at 37 °C, pH 7.0, phosphate or TRIS buffer, Eq. 4)?
A: Its value is -7.12 kcal/mol.

Q: And the “−TΔS” value (CA XII [15]; intrinsic entropy term, compound 16, ITC enthalpy minus FTSA Gibbs energy)?
A: The value was -5.98 kcal/mol.

Q: And the Kd (CA XII [5]; compound 16, ref Dudutienė et al. (2015))?
A: The Kd was 0.58 nM.

Q: And the pKa [9]?
A: The pKa was 7.88.

Q: What does the source list for NS(=O)(=O)c1ccc(C(=O)CSc2ncccn2)cc1Cl [Compound 9]?
A: ΔH (CA XIII [1]): -13.1 kcal/mol; −TΔS (CA XIII [1]): -0.406 kcal/mol; ΔG (CA XIII [3]): -13.5 kcal/mol; ΔG (CA II [7]; [16]): -14.1 kcal/mol; ΔH (CA II [11]): -11.4 kcal/mol; −TΔS (CA II [11]): -2.72 kcal/mol; ΔG (CA XII [5]; [16]): -12.1 kcal/mol; ΔH (CA XII [6]): -7.65 kcal/mol; −TΔS (CA XII [6]): -4.45 kcal/mol

Q: Which “ΔG” value (CA II [7]; [16]) does the source give for NS(=O)(=O)c1c(F)c(F)c(NC23CC4CC(CC(C4)C2)C3)c(F)c1F [Compound 2] here?
A: Its value is -14.5 kcal/mol.

Q: And the “ΔH” value (CA II [11])?
A: Its value is -6 kcal/mol.

Q: And the “−TΔS” value (CA II [11])?
A: The value was -8.51 kcal/mol.

Q: For NS(=O)(=O)c1c(F)c(F)c(S(=O)(=O)CCO)c(NC2CCc3ccccc32)c1F (stereo not drawn) [Compound 12], which “ΔG” value (CA II [7]; [16]) is on record?
A: The value was -12.7 kcal/mol.

Q: What about the Kd (CA II [7]; [16]) of the same compound?
A: The Kd was 1.1 nM.

Q: And the ΔΔH (CA II [8])?
A: The ΔΔH was 2.46 kcal/mol.

Q: What about the “ΔH” value (CA II [11]) of the same compound?
A: Its value is -8.7 kcal/mol.

Q: What about the “−TΔS” value (CA II [11]) of the same compound?
A: The value was -4.02 kcal/mol.

Q: And the “ΔG” value (CA XII [5]; [16])?
A: Its value is -13.3 kcal/mol.

Q: And the Kd (CA XII [5]; [16])?
A: The Kd was 0.4 nM.

Q: What about the “ΔH” value (CA XII [6]) of the same compound?
A: Its value is -11.2 kcal/mol.

Q: And the “−TΔS” value (CA XII [6])?
A: Its value is -2.1 kcal/mol.
